Experimental data reported in paper PMC9271048, “Probing strigolactone perception mechanisms with rationally designed small-molecule agonists stimulating germination of root parasitic weeds” (Nature Communications, 2022).
Where two headings read alike, the source gives them in different places.

Legend:
ShHTL7 [1] = target: T1, ShHTL7 (Striga hermonthica, UniProt A0A0M3PNA2); assay: biochemical; format: binding
Protocol: We used a sensitive, high-throughput Surface plasmon resonance (SPR) method to examine the binding affinities of the 51 candidates to the recombinant ShHTL7 protein, which was immobilized on the CM5 sensor chip. rac-GR24 was used as a positive control.
The interactions of small molecules with recombinant ShHTL7 were evaluated using the Biacore T200 system (GE Healthcare, USA) at 25 °C[47]. The purified ShHTL7 protein was immobilized on a CM5 sensor chip using the standard amine coupling procedure. […] PBS-P (10 mM phosphate buffer, 2.7 mM KCl, 137 mM NaCl, 0.05% Surfactant P20) containing 0.5% DMSO was used as the running buffer. For the screening experiments, candidates with different structures at 50 μM in the running buffer were injected individually at a flow rate of 30 μL min^−1. For binding affinity studies, compounds with different concentrations in running buffer were used. During the experiments, both the contact and dissociation times were set as 1 min. Data analysis was performed using the Biacore Evaluation Software (T200 Version 2.0). The affinity values (KD) were obtained by the kinetics analysis or the steady-state affinity method.

ShHTL7 [2] = target: T1, ShHTL7; assay: Lineweaver-Burk plot analysis of ShHTL7 inhibition (YLG); format: biochemical; settings: ShHTL7-mediated hydrolysis of YLG; no significant change of Vmax
Protocol: 0.1 Å width; second, the number of data points of each bin was counted; third, the density of each bin is calculated using the number of D5′C-OG-DNE2-HG data points fall in the corresponding bin being divided by the total number of the distance-distance data points; last, the Z(A,D) (shown in Equation 1) was constructed by fitting the data with the two-dimensional Gaussian function using the non-linear surface fitting methods in Origin Lab.
In this equation, Z is the conformation probability density of D5′C-OG and DNE2-HG in the calculation system. µ is the mean of the normal distribution. σ is the standard deviation.
The PPC of each system was calculated using the bivariate integration of the corresponding CPDF over the interval 1.5–3.8 Å for D5′C-OG, and 1.6–3.5 Å for DNE2-HG with Equation 2 using Matlab software (The Math Works, Natick, MA).
The final PPC value of each system was the averaged data of every 200 ns in the MD simulation.
The structure figures were analyzed by PYMOL software8.
The structures of (S)-4a were constructed and optimized by Sybyl 6.9 (Tripos Inc., St. Louis, MO).
DFT calculations of (S)-4a were performed by Gaussian 09 program package at b3lyp/6-31g(d) level9.
The results were analyzed by GaussView 5.0.
Determination of the Inhibition Model
For Lineweaver-Burk plot analysis, the competitive inhibition of ShHTL7 by compounds 1, 2g, and 2h was performed by using YLG as the substrate at 25 °C. The excitation and emission […]
Supplementary Fig. 7. Lineweaver−Burk plots for the inhibition of ShHTL7 by compounds 1 (a), 2g (b), and 2h (c). Error bar indicates SD (n = 3 biologically independent experiments).
(§1) (1 picture or pasted object on this page, not shown here)
[1] Yao, R. et al. DWARF14 is a non-canonical hormone receptor for strigolactone. Nature 536, 469– […]
[2] de Saint Germain, A. et al. An histidine covalent receptor and butenolide complex mediates strigolactone perception.
[3] […]
A: We have evaluated inhibitory kinetics of the three representative compounds 1, 2g, and 2h on ShHTL7-mediated hydrolysis of YLG. […]

ShHTL7 [3] = target: T1, ShHTL7; assay: ShHTL7-hydrolysis reaction analysis (HPLC); format: biochemical; settings: authors' response to reviewer
Protocol: Compounds 4a, (R)- and (S)-4a, 4g-i, and rac-GR24 were dissolved in DMSO and prepared as stock solution ([…]) just before use. A 200 μL of the reaction solution consisting of PBS buffer (pH 7.3), 10 μM samples, and 10 μg recombinant ShHTL7 or its mutants was incubated at 30 °C for 30 min; with the reaction solution (200 μL) containing PBS buffer (pH 7.3) and 10 μM samples as the blank control[40],[52]. Subsequently, the reaction was terminated by adding 200 μL of methanol, and then the reaction mixture was shaken for 10 s and centrifuged at 5310 × g for 60 s. The supernatant was filtered and the remaining amount of samples was analyzed by HPLC. The relative percentages of hydrolysis were obtained by using the amount of compounds in blank control as reference.
Supplementary Fig. 11. Hydrolysis of 4a, (R)-4a, (S)-4a, 4g-i, and rac-GR24 by ShHTL7 at 30 °C for 30 min. The remaining amounts of compounds in recombinant ShHTL7 protein and buffer solution were determined by HPLC analysis. The relative percentages of hydrolysis were calculated by using the amount of compounds in the buffer as reference. The error bar indicates SD (n = 3 biologically independent experiments).
as §1

ShHTL7 [4] = target: T1, ShHTL7; assay: Competitive inhibition of ShHTL7 with Yoshimulactone Green (YLG) as substrate; format: biochemical; settings: YLG used as the substrate, means ± SD, n = 3
Protocol: Based on the structural feature of the lead compound 2h, we selected three regions to perform further modification (Supplementary Fig. 6), to try to further improve bioactivity. Insertion of a carbonyl group between the bicyclo[2.2.1]hept-5-en-2-yl group and the piperazine ring was detrimental to binding affinity (Supplementary Fig. 6, region A). Removal of an oxygen atom in region B was found unfavorable to binding affinity as well. Therefore, we focused on modifying the benzene ring (region C) for 2h. A series of compounds with different groups at region C was synthesized (Supplementary Scheme 1). […] As SPR just measures the binding ability, another independent assay by using Yoshimulactone Green (YLG) as the fluorescent substrate was performed to determine the half-maximal inhibitory concentration (IC50) of these compounds against ShHTL7[22].
The excitation and emission wavelengths of YLG are 480 and 520 nm, respectively. We used a fluorescence spectrophotometer (CARY Eclipse) to detect the fluorescence intensity change of YLG during the enzymatic hydrolysis assay process. All the testing compounds and YLG were dissolved in DMSO and prepared as stock solutions just before use. […] The changes of fluorescence at 520 nm of each well were recorded every 1 min for 30 min. Using the reaction mixture without adding enzyme and tested compounds as the background control. After subtracting the background hydrolysis, a linear fluorescence increase in 8 min was used for further inspection. The IC50 values were determined via fitting relative inhibition percentages with the varying concentrations of compounds in Microsoft Excel.

P. aegyptiaca seeds = assay: P. aegyptiaca seed germination assay; format: in vivo, Phelipanche aegyptiaca; settings: for germination of P. aegyptiaca seeds, source data average: 10 μM, Fig. 1d source data, average of 3; for P. aegyptiaca germination(%): Supplementary Table 1, compounds tested at 10 μM, means ± SD, n = 3
Protocol: P. aegyptiaca seeds were harvested from Xinjiang province, China in 2017. The seeds were surface sterilized using 1% NaClO solution for 2 min and then washed with distilled water six times. For seed germination assay, about 20 pieces of glass fiber-filter paper discs (15 mm diameter, Whatman GF/B) were placed separately on two layers of filter papers (9 cm diameter, Whatman) in a Petri dish. Five milliliters of distilled water was added to each Petri dish to wet the papers. Approximately 40–90 sterilized seeds were spread onto each glass fiber-filter paper disc. After the seeds were conditioned in the dark at 25 °C for 4 days[48], glass fiber-filter paper discs were blotted dry on filter papers (9 cm) and transferred to the wells of 24-well cell culture plates. The testing compounds were dissolved in acetone and diluted with H2O (VH2O/Vacetone = 999/1) just before use[49]. rac-GR24 and 1‰ acetone solution were used as positive and negative controls, respectively. One hundred microliters of the test solution was added to each well of the plates, and all treatments were performed in three biological repeats. The plates were sealed and incubated in the dark at 25 °C for a week. The experiments were performed at least three times. The germinated seeds were observed by using an electronic magnifier at ×20 magnification.

T1 sequence (A0A0M3PNA2 entry or part of it): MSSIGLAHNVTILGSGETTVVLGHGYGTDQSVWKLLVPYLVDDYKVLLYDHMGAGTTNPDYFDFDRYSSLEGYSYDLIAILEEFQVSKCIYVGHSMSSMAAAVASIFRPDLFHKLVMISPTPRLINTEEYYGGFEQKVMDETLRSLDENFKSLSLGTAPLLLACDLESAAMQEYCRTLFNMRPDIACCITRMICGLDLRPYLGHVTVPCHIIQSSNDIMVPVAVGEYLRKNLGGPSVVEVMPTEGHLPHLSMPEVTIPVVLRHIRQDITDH

Q: How did the Kd (ShHTL7 [1]) turn out when `O=C(COc1ccc(Cl)cc1)N1CCN(CC2CC=CCC2)CC1` (stereo not shown) [2g] was run?
A: 1.02 ± 0.11 µM

Q: What about the “inhibition manner (Lineweaver-Burk plot)” value (ShHTL7 [2]) of the same compound?
A: in a competitive manner

Q: And the “hydrolysis by ShHTL7” value (ShHTL7 [3])?
A: could not be hydrolyzed by ShHTL7

Q: What does the source list for `O=C(c1ccc(F)cc1)N1CCN(CC2CC=CCC2)CC1` (stereo not shown) [compound 1, (4-(cyclohex-3-en-1-ylmethyl)piperazin-1-yl)(4-fluorophenyl)methanone]?
A: Kd (ShHTL7 [1]): 13.3 ± 1.4 µM; IC50 (ShHTL7 [4]; read-out: IC50 (Supplementary Table 1)): 15.9 ± 1.47 µM; inhibition manner (Lineweaver-Burk plot) (ShHTL7 [2]): in a competitive manner; germination of P. aegyptiaca seeds, source data average (P. aegyptiaca seeds): 40.0744%; P. aegyptiaca germination(%) (P. aegyptiaca seeds): 39.4%

Q: What does the source list for `Cc1ccc(OCC(=O)N2CCN(CC3CC4C=CC3C4)CC2)cc1` (stereo not shown) [2h]?
A: Kd (ShHTL7 [1]): 0.96 µM; IC50 (ShHTL7 [4]; IC50 (Supplementary Table 1)): 22 ± 4.97 µM; inhibition manner (Lineweaver-Burk plot) (ShHTL7 [2]): in a competitive manner; germination of P. aegyptiaca seeds, source data average (P. aegyptiaca seeds): 25.888%; P. aegyptiaca germination(%) (P. aegyptiaca seeds): 27.4%
